Assay results taken from patent publication USRE42890E1, “Furazanobenzimidazoles” (Basilea Pharmaceutica AG, priority 2003, dated 2011).

Legend:
Jurkat = assay: MTS proliferation assay, Jurkat; type: cell-based, human; conditions: 72 h incubation, read-out: MTS proliferation assay IC 50 Jurkat
Summary of the method: (§1)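 Cells seeded 24 h before treatment in RPMI-1640 with 5% or 10% FCS. Compounds added at 10, 3, 1 and 0.3 μM final and incubated 72 h at 37 °C, 7.5% CO2. MTS reagent then added for 3 h, absorbance read at 492 nm.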

Jily = assay: MTS proliferation assay, Jily; type: cell-based; conditions: 72 h incubation, read-out: MTS proliferation assay IC 50 Jily
Summary of the method: (§2)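 Cells seeded 24 h before treatment in RPMI-1640 with 5% or 10% FCS, then exposed 72 h at 37 °C, 7.5% CO2, to compound at final 10, 3, 1 and 0.3 μM. Viability by MTS, 3 h further incubation, absorbance 492 nm.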

HT1080 = assay: MTS proliferation assay, HT1080; type: cell-based, human; conditions: HT1080, 72 h incubation; read-out: MTS proliferation assay IC 50 HT1080
Summary of the method: as §1

HeLa = assay: MTS proliferation assay, HeLa; type: cell-based, human; conditions: 72 h incubation, read-out: MTS proliferation assay IC 50 HeLa
Summary of the method: as §1

MRC5 = assay: MTS proliferation assay, MRC5; type: cell-based; conditions: MRC5, 72 h incubation; read-out: MTS proliferation assay IC 50 MRC5
Summary of the method: as §2

[1] = system: adherent cells or suspension cells; assay: Hoechst 33342 nuclear staining (fraction of apoptotic nuclei); type: cell-based; design: key: 0 relating to no activity; 1 relating to weak activity comprising less than 70% of the cells; score 2 relating to strong activity comprising more than 70% of the cells

Row | Compound | IC50 (Jurkat) [nM] | IC50 (HT1080) [nM] | IC50 (HeLa) [nM] | IC50 (Jily) [nM] | IC50 (MRC5) [nM] | Hoechst 33342 nuclear staining score ([1]; H460, conc 0.01 μm) | Hoechst 33342 nuclear staining score ([1]; H460, conc 0.1 μm) | Hoechst 33342 nuclear staining score ([1]; H460, conc 1 μm) | Hoechst 33342 nuclear staining score ([1]; HeLa, conc 0.01 μm) | Hoechst 33342 nuclear staining score ([1]; HeLa, conc 0.1 μm) | Hoechst 33342 nuclear staining score ([1]; HeLa, conc 1 μm) | Hoechst 33342 nuclear staining score ([1]; Jily, conc 0.01 μm) | Hoechst 33342 nuclear staining score ([1]; Jily, conc 0.1 μm) | Hoechst 33342 nuclear staining score ([1]; Jily, conc 1 μm) | Hoechst 33342 nuclear staining score ([1]; Jurkat, conc 0.01 μm) | Hoechst 33342 nuclear staining score ([1]; Jurkat, conc 0.1 μm) | Hoechst 33342 nuclear staining score ([1]; Jurkat, conc 1 μm) | Hoechst 33342 nuclear staining score ([1]; MRC5, conc 0.01 μm) | Hoechst 33342 nuclear staining score ([1]; MRC5, conc 0.1 μm) | Hoechst 33342 nuclear staining score ([1]; MRC5, conc 1 μm) | also measured
1 | Nc1nonc1-c1nc2ccccc2n1CC1CC1 [B, reference compound] | > 1000 | > 1000 | > 1000 | > 1000 | > 1000 |  |  |  |  |  |  |  |  |  |  |  |  |  |  |  | Hoechst 33342 nuclear staining score ([1]; H460, conc 3 μm): 0; Hoechst 33342 nuclear staining score ([1]; H460, conc 10 μm): 0; Hoechst 33342 nuclear staining score ([1]; H460, conc 30 μm): 0; Hoechst 33342 nuclear staining score ([1]; HeLa, conc 3 μm): 0; Hoechst 33342 nuclear staining score ([1]; HeLa, conc 10 μm): 0; Hoechst 33342 nuclear staining score ([1]; HeLa, conc 30 μm): 0; Hoechst 33342 nuclear staining score ([1]; Jily, conc 3 μm): 0; Hoechst 33342 nuclear staining score ([1]; Jily, conc 10 μm): 0; Hoechst 33342 nuclear staining score ([1]; Jily, conc 30 μm): 0; Hoechst 33342 nuclear staining score ([1]; Jurkat, conc 3 μm): 0; Hoechst 33342 nuclear staining score ([1]; Jurkat, conc 10 μm): 0; Hoechst 33342 nuclear staining score ([1]; Jurkat, conc 30 μm): 0; Hoechst 33342 nuclear staining score ([1]; MRC5, conc 3 μm): 0; Hoechst 33342 nuclear staining score ([1]; MRC5, conc 10 μm): 0; Hoechst 33342 nuclear staining score ([1]; MRC5, conc 30 μm): 0; Hoechst 33342 nuclear staining score ([1]; PBLs, conc 3 μm): 0; Hoechst 33342 nuclear staining score ([1]; PBLs, conc 10 μm): 0; Hoechst 33342 nuclear staining score ([1]; PBLs, conc 30 μm): 0
2 | Nc1nonc1-c1nc2ccccc2n1CC(=O)c1ccc(F)cc1 [Example 67] | 100 to 1000 | 100 to 1000 | 100 to 1000 | 10 to 100 | 100 to 1000 | 0 | 0 | 2 (score 2 relating to strong activity comprising more than 70% of the cells) | 0 | 0 | 2 (score 2 relating to strong activity comprising more than 70% of the cells) | 0 | 2 (score 2 relating to strong activity comprising more than 70% of the cells) | 2 (score 2 relating to strong activity comprising more than 70% of the cells) | 0 | 2 (score 2 relating to strong activity comprising more than 70% of the cells) | 2 (score 2 relating to strong activity comprising more than 70% of the cells) | 0 | 0 | 1 (1 relating to weak activity comprising less than 70% of the cells) | Hoechst 33342 nuclear staining score ([1]; PBLs, conc 0.01 μm): 0; Hoechst 33342 nuclear staining score ([1]; PBLs, conc 0.1 μm): 0; Hoechst 33342 nuclear staining score ([1]; PBLs, conc 1 μm): 0
3 | Nc1nonc1-c1nc2ccccc2n1COc1ccc(CO)cc1 [Example 97] | 100 to 1000 | 100 to 1000 | 100 to 1000 | 100 to 1000 | 100 to 1000 | 0 | 0 | 2 (score 2 relating to strong activity comprising more than 70% of the cells) | 0 | 0 | 2 (score 2 relating to strong activity comprising more than 70% of the cells) | 0 | 0 | 2 (score 2 relating to strong activity comprising more than 70% of the cells) | 0 | 0 | 2 (score 2 relating to strong activity comprising more than 70% of the cells) | 0 | 0 | 0 | Hoechst 33342 nuclear staining score ([1]; PBLs, conc 0.01 μm): 0; Hoechst 33342 nuclear staining score ([1]; PBLs, conc 0.1 μm): 0; Hoechst 33342 nuclear staining score ([1]; PBLs, conc 1 μm): 0

Second part, led by results:

Row | IC50 (Jurkat) [nM] | IC50 (HT1080) [nM] | IC50 (HeLa) [nM] | Compound | IC50 (Jily) [nM] | IC50 (MRC5) [nM] | Hoechst 33342 nuclear staining score ([1]; H460, conc 0.01 μm) | Hoechst 33342 nuclear staining score ([1]; H460, conc 0.1 μm) | Hoechst 33342 nuclear staining score ([1]; H460, conc 1 μm) | Hoechst 33342 nuclear staining score ([1]; HeLa, conc 0.01 μm) | Hoechst 33342 nuclear staining score ([1]; HeLa, conc 0.1 μm) | Hoechst 33342 nuclear staining score ([1]; HeLa, conc 1 μm) | Hoechst 33342 nuclear staining score ([1]; Jily, conc 0.01 μm) | Hoechst 33342 nuclear staining score ([1]; Jily, conc 0.1 μm) | Hoechst 33342 nuclear staining score ([1]; Jily, conc 1 μm) | Hoechst 33342 nuclear staining score ([1]; Jurkat, conc 0.01 μm) | Hoechst 33342 nuclear staining score ([1]; Jurkat, conc 0.1 μm) | Hoechst 33342 nuclear staining score ([1]; Jurkat, conc 1 μm) | Hoechst 33342 nuclear staining score ([1]; MRC5, conc 0.01 μm) | Hoechst 33342 nuclear staining score ([1]; MRC5, conc 0.1 μm) | Hoechst 33342 nuclear staining score ([1]; MRC5, conc 1 μm) | also measured
4 | < 10 | < 10 | 10 to 100 | Nc1ccc(C(=O)Cn2c(-c3nonc3N)nc3ccccc32)cc1[N+](=O)[O-] [Example 65] | < 10 | < 10 | 2 (score 2 relating to strong activity comprising more than 70% of the cells) | 2 (score 2 relating to strong activity comprising more than 70% of the cells) | 2 (score 2 relating to strong activity comprising more than 70% of the cells) | 0 | 2 (score 2 relating to strong activity comprising more than 70% of the cells) | 2 (score 2 relating to strong activity comprising more than 70% of the cells) | 2 (score 2 relating to strong activity comprising more than 70% of the cells) | 2 (score 2 relating to strong activity comprising more than 70% of the cells) | 2 (score 2 relating to strong activity comprising more than 70% of the cells) | 2 (score 2 relating to strong activity comprising more than 70% of the cells) | 2 (score 2 relating to strong activity comprising more than 70% of the cells) | 2 (score 2 relating to strong activity comprising more than 70% of the cells) | 0 | 2 (score 2 relating to strong activity comprising more than 70% of the cells) | 2 (score 2 relating to strong activity comprising more than 70% of the cells) | Hoechst 33342 nuclear staining score ([1]; PBLs, conc 0.01 μm): 0; Hoechst 33342 nuclear staining score ([1]; PBLs, conc 0.1 μm): 0; Hoechst 33342 nuclear staining score ([1]; PBLs, conc 1 μm): 0
5 | 10 to 100 | 100 to 1000 | 100 to 1000 | COc1ccc(C(=O)Cn2c(-c3nonc3NCCC#N)nc3ccccc32)cc1N [Example 69] | 100 to 1000 | 100 to 1000 | 0 | 0 | 2 (score 2 relating to strong activity comprising more than 70% of the cells) | 0 | 0 | 2 (score 2 relating to strong activity comprising more than 70% of the cells) | 0 | 1 (1 relating to weak activity comprising less than 70% of the cells) | 2 (score 2 relating to strong activity comprising more than 70% of the cells) | 0 | 1 (1 relating to weak activity comprising less than 70% of the cells) | 2 (score 2 relating to strong activity comprising more than 70% of the cells) | 0 | 0 | 1 (1 relating to weak activity comprising less than 70% of the cells) | Hoechst 33342 nuclear staining score ([1]; PBLs, conc 0.01 μm): 0; Hoechst 33342 nuclear staining score ([1]; PBLs, conc 0.1 μm): 0; Hoechst 33342 nuclear staining score ([1]; PBLs, conc 1 μm): 0
6 | 10 to 100 | 10 to 100 | 100 to 1000 | Nc1ccc(C(=O)Cn2c(-c3nonc3N)nc3ccccc32)cc1.O=C(O)C(=O)O [Example 62] | 10 to 100 | 10 to 100 | 0 | 2 (score 2 relating to strong activity comprising more than 70% of the cells) | 2 (score 2 relating to strong activity comprising more than 70% of the cells) | 0 | 2 (score 2 relating to strong activity comprising more than 70% of the cells) | 2 (score 2 relating to strong activity comprising more than 70% of the cells) | 0 | 2 (score 2 relating to strong activity comprising more than 70% of the cells) | 2 (score 2 relating to strong activity comprising more than 70% of the cells) | 0 | 2 (score 2 relating to strong activity comprising more than 70% of the cells) | 2 (score 2 relating to strong activity comprising more than 70% of the cells) | 0 | 2 (score 2 relating to strong activity comprising more than 70% of the cells) | 2 (score 2 relating to strong activity comprising more than 70% of the cells) | Hoechst 33342 nuclear staining score ([1]; PBLs, conc 0.01 μm): 0; Hoechst 33342 nuclear staining score ([1]; PBLs, conc 0.1 μm): 0; Hoechst 33342 nuclear staining score ([1]; PBLs, conc 1 μm): 0
